In patent US5382430A, “Method for the stimulation of the immune system of an animal by use of limulus test-positive plant glycolipid” (priority 1989, dated 1995):

B1: parathyroid hormone (protein, UniProt P01270 32-115, looked up)
Parathyroid hormone: SVSEIQLMHNLGKHLNSMERVEWLRKKLQDVHNFVALGAPLAPRDAGSQRPRKKEDNVLVESHEKSLGEADKADVNVLTKAKSQ
notes: Already known parathyroid hormone which is a bony tissue absorbance hormone

Key:
TNF = settings: prior art statement; cited from earlier work
[1] = tested on: parietal bones of fowl's embryo; experiment: Osteogenesis stimulation: osteoclast activation test, 45Ca leakage (Table 9); settings: 1 unit/ml
Description: Stimulation of Osteogenesis
This stimulation was confirmed by an osteolast activation test.
Osteoclast cells are those in charge of absorbing bony tissue which destroy old bones in said tissue. […] As a result, the osteogenesis is presumed to be stimulated.
In the osteoclast activation test, parietal bones of fowl's embryo are used as experimental samples. That is, the parietal bones of fowl's embryo are labelled with ^45 Ca, and are cultured in a medium containing a medicine candidate (treated group) or in a said candidate-free medium (control group), and thereafter the quantity of the ^45 Ca remaining in the bones and that of the ^45 Ca leaked into the medium during culture are determined. The ^45 Ca leakage rates in both tile treated and control groups are calculated according to the following equation:
^45 Ca leakage rate=(Quantity of ^45 Ca leaked)/(Quantity of
remaining ^45 Ca+Quantity of ^45 Ca leaked)
The effect of the candidate is expressed by the following T/C rate:
T/C rate=(Quantity of ^45 Ca leaked in the treated group)/(Quantity of
^45 Ca leaked in the control group) […]
4) The medium (each, 250 μl) was added to 4.5 ml of ACSII scintillator (Amersham Co. In U.K.), and the counting was made on the basis of liquid scintillation to determine the quantity of the 45Ca leaked into the medium. […]

Row | Molecule | TNF productivity (TNF) | 45Ca leakage, Treated T [1] | T/C rate [1]
1 | sizofiran [Sonifilan] | no TNF productivity |  | 
2 | lentinan | no TNF productivity |  | 
3 | CC(C)C[C@H](NC(=O)[C@@H](O)[C@H](N)Cc1ccccc1)C(=O)O [Bestatin, ubenimex] | no TNF productivity |  | 
4 | polysaccharide K [PSK] | no TNF productivity |  | 
5 | B1 |  | 4.46 | 1.22
